Our source for the TGI values is PubChem BioAssay (NCI).

Among the test systems are BT-549 breast; COLO 205 colon; EKVX NSCLC; HCC-2998 colon; HL-60(TB) leukemia; HS 578T breast; IGROV1 ovarian; K-562 leukemia; MALME-3M melanoma; MDA-MB-231 breast; MOLT-4 leukemia; NCI-H460 lung; NCI/ADR-RES ovarian; OVCAR-4 ovarian; RPMI-8226 leukemia; RXF 393 renal; SK-MEL-2 melanoma; SNB-75 CNS; UACC-257 melanoma; MCF7 breast.
Test in all cases: growth of human tumour cells (NCI), 48 h

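Cells were grown in 96-well plates and exposed to each compound for 48 hours at five concentrations; endpoints were interpolated linearly between bracketing concentrations, or set to the highest concentration if not reached. TGI denotes the concentration required for complete inhibition of growth.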 Where only a bound is given, the exact number is not on record here.

For the compound `OCC1C(O)C(O)[C@@H]2SCCN12` (some centres undefined), the TGI in the experiment with BT-549 breast, in the experiment on COLO 205 colon, in the experiment with EKVX NSCLC, in the experiment with HCC-2998 colon, in the experiment on HL-60(TB) leukemia and in the experiment on HS 578T breast was more than 100 µM throughout. The TGI in the experiment with IGROV1 ovarian, in the experiment on K-562 leukemia, with MALME-3M melanoma, in the experiment with MDA-MB-231 breast, in the experiment on MOLT-4 leukemia and with NCI-H460 lung was more than 100 µM throughout. The TGI in the experiment with NCI/ADR-RES ovarian, with OVCAR-4 ovarian, in the experiment on RPMI-8226 leukemia, in the experiment on RXF 393 renal, with SK-MEL-2 melanoma and in the experiment on SNB-75 CNS was more than 100 µM each time. In addition, in the experiment on UACC-257 melanoma, the TGI is more than 100 µM.
For `Cn1c(=O)c2[nH]c(/N=N\n3ccc4ccccc43)nc2n(C)c1=O`, the TGI with BT-549 breast, in the experiment on COLO 205 colon, in the experiment on EKVX NSCLC, in the experiment on HCC-2998 colon, with HL-60(TB) leukemia and with HS 578T breast was more than 100 µM throughout. The TGI in the experiment with K-562 leukemia, in the experiment on MALME-3M melanoma, in the experiment on MDA-MB-231 breast, in the experiment with MOLT-4 leukemia, with NCI-H460 lung and with NCI/ADR-RES ovarian was more than 100 µM in each case. Besides, the TGI in the experiment on OVCAR-4 ovarian, in the experiment on RPMI-8226 leukemia, in the experiment with RXF 393 renal, in the experiment on SNB-75 CNS and in the experiment with UACC-257 melanoma was more than 100 µM throughout.
Consider `O=c1oc2ccccc2c(-c2ccc(O)cc2)c1Oc1ccc(Cl)cc1`, for which the TGI in the experiment on BT-549 breast was 84.3 µM; in the experiment on COLO 205 colon it was 56.2 µM; in the experiment on EKVX NSCLC, 68.7 µM; in the experiment on HCC-2998 colon, 46.1 µM; in the experiment on HS 578T breast, more than 100 µM; in the experiment with IGROV1 ovarian it was 60.8 µM. Besides, the TGI stood at 72.1 µM in the experiment with K-562 leukemia; 55 µM in the experiment on MALME-3M melanoma; 72.3 µM with MCF7 breast; 90.6 µM with MDA-MB-231 breast; 54.4 µM with NCI-H460 lung; 82.3 µM in the experiment with NCI/ADR-RES ovarian. Besides, the TGI in the experiment with OVCAR-4 ovarian is more than 100 µM; with RPMI-8226 leukemia it was 52.4 µM; in the experiment on RXF 393 renal, 57.8 µM; in the experiment with SK-MEL-2 melanoma, 54.2 µM; with SNB-75 CNS it was 85.7 µM; with UACC-257 melanoma it was 83.8 µM.
`NS(=O)(=O)c1cc(S(N)(=O)=O)c(NC(=O)Nc2ccc(Cl)c(Cl)c2)c(Cl)c1Cl`: the TGI in the experiment with BT-549 breast, in the experiment with COLO 205 colon, in the experiment with EKVX NSCLC, with HCC-2998 colon, with HS 578T breast and in the experiment on IGROV1 ovarian was more than 100 µM each time. Besides, the TGI with K-562 leukemia, in the experiment on MCF7 breast, in the experiment on MDA-MB-231 breast, with MOLT-4 leukemia, in the experiment on NCI-H460 lung and in the experiment with NCI/ADR-RES ovarian was more than 100 µM throughout. For the same compound, the TGI in the experiment on OVCAR-4 ovarian, in the experiment with RPMI-8226 leukemia, with SK-MEL-2 melanoma and in the experiment on UACC-257 melanoma was more than 100 µM each time.
As for `CC(C)=CCC/C(C)=C/CC/C(C)=C/[C@@H]1[C@@H](CO)[C@]1(C)CC/C=C(\C)CCC=C(C)C`, the TGI was more than 100 µM in the experiment with BT-549 breast; more than 100 µM in the experiment on COLO 205 colon; 48.2 µM in the experiment on EKVX NSCLC; more than 100 µM in the experiment with HS 578T breast; 27.5 µM with IGROV1 ovarian; more than 100 µM in the experiment with K-562 leukemia. The TGI in the experiment on MALME-3M melanoma was more than 100 µM; with MDA-MB-231 breast, 52.2 µM; in the experiment with MOLT-4 leukemia, more than 100 µM; in the experiment with NCI-H460 lung, more than 100 µM; with NCI/ADR-RES ovarian, 55 µM; in the experiment with OVCAR-4 ovarian, more than 100 µM. For the same compound, the TGI in the experiment on RPMI-8226 leukemia was 71.8 µM; in the experiment on RXF 393 renal, 72.8 µM; with SK-MEL-2 melanoma, more than 100 µM; in the experiment with SNB-75 CNS, more than 100 µM; with UACC-257 melanoma, more than 100 µM.
In the case of `CC(C)=C1C(=O)C[C@]2(C)C/C=C(\C)CC/C=C(\C)CC[C@@H]12`, the TGI was 24.8 µM in the experiment with BT-549 breast; 16.6 µM in the experiment on COLO 205 colon; 32.5 µM in the experiment with EKVX NSCLC; 14.9 µM in the experiment with HCC-2998 colon; 28 µM in the experiment on HS 578T breast; 19.4 µM with IGROV1 ovarian. For the same compound, the TGI worked out at 13.6 µM in the experiment on K-562 leukemia; 30.4 µM with MCF7 breast; 15.4 µM in the experiment with MDA-MB-231 breast; 18.2 µM with MOLT-4 leukemia; 14.8 µM in the experiment on NCI/ADR-RES ovarian; 45.6 µM in the experiment on OVCAR-4 ovarian. In addition, the TGI in the experiment on RPMI-8226 leukemia came out at 36.9 µM; in the experiment with RXF 393 renal, 15.2 µM; with SK-MEL-2 melanoma, 15.8 µM; in the experiment on SNB-75 CNS, 20.2 µM; in the experiment with UACC-257 melanoma, 25.4 µM.
For the compound `Oc1c(Cl)ccc2cccnc12`, the TGI with BT-549 breast was more than 100 µM; in the experiment on COLO 205 colon it was more than 100 µM; with EKVX NSCLC, 39.4 µM; with HCC-2998 colon, more than 100 µM; in the experiment on HL-60(TB) leukemia it was 0.728 µM; in the experiment with HS 578T breast, more than 100 µM. Moreover, the TGI is 1.86 µM in the experiment with IGROV1 ovarian; 7.56 µM in the experiment on K-562 leukemia; more than 100 µM in the experiment on MALME-3M melanoma; more than 100 µM in the experiment with MDA-MB-231 breast; 5.76 µM with MOLT-4 leukemia; 88 µM in the experiment on NCI-H460 lung. For the same compound, the TGI was 3.43 µM in the experiment with NCI/ADR-RES ovarian; more than 100 µM in the experiment on OVCAR-4 ovarian; 8.28 µM with RPMI-8226 leukemia; 26.2 µM with RXF 393 renal; 89.6 µM in the experiment on SNB-75 CNS; 84.2 µM with UACC-257 melanoma.
`Nc1nc(N)nc(-c2cnc3ccccc3c2)n1`: the TGI in the experiment with BT-549 breast, in the experiment with COLO 205 colon, with EKVX NSCLC, in the experiment on HCC-2998 colon, in the experiment with HS 578T breast and in the experiment with IGROV1 ovarian was more than 100 µM throughout. Further, the TGI in the experiment on K-562 leukemia, in the experiment with MALME-3M melanoma, in the experiment with MCF7 breast, in the experiment on MDA-MB-231 breast, in the experiment on MOLT-4 leukemia and in the experiment with NCI-H460 lung was more than 100 µM throughout. Besides, the TGI in the experiment with NCI/ADR-RES ovarian, with RXF 393 renal, with SK-MEL-2 melanoma, with SNB-75 CNS and in the experiment on UACC-257 melanoma was more than 100 µM each time.
